What was measured:
undifferentiated cells = settings: cited from earlier work
Excerpt: Previous functional studies agree in identifying the N-terminal region as a pivotal NT domain for the binding selectivity and activation of Trks.[25]−[27] However, most of these information were obtained from the NGF-TrkA system.[28],[29] On the other hand, the BDNF N-terminal region has been less investigated. […] Mo ...

[1] = far-UV CD spectra and Zn^2+ titration; assay type: physicochemical; settings: water, 298 K, pH 7.4, wide minimum around 200 nm
Description: Figure 5 Evaluation of Zn^2+ ion binding on d-bdnf. (A,B) Deconvoluted ESI mass spectra of 10^–6 M d-bdnf solutions incubated in water 2 h, 37 °C in the presence of a 100-fold excess of Zn^2+. 0.1% of formic acid was added (A) or not (B) just before the infusion. (C) Far-UV CD spectra at pH 7.4 for titration with Zn^2+ of d-bdnf (the black curve is the spectrum of peptide; red, green, blue, cyano, and gray are spectra of peptide after the addition of increasing equivalents of metal ions. (D) Spectral changes as a function of zinc addition monitored at λ = 222 nm. [d-bdnf] = 1 × 10^–5 M. (E) Most representative conformation for the BDNF(1–12) dimer coordinating Zn(II) metal ion. Carbon atoms are shown in silver, nitrogen atoms are reported in blue, oxygen atoms in red, sulfur atoms are represented in yellow, and Zn atom is reported in orange. The secondary structure of the peptide is represented in green.
Far-UV CD spectra were obtained at 298 K under a constant flow of nitrogen by using a Jasco model 810 spectropolarimeter. […]
Potentiometric titrations were carried out on a Titrando 905 automatic, using a combined glass-Ag/AgCl electrode (Metrohm, Switzerland). […] To avoid systematic errors and verify reproducibility, the EMF values of each experiment were recorded at different time intervals. The data were analyzed by using HYPERQUAD 2003 program 17. […]

[2] = potentiometric titration, protonation constants; assay type: physicochemical; settings: 298 K
Description: Potentiometric measurements were carried out to give insight into the coordination environment of Zn^2+ bound to the d-bdnf peptide (Figure S5). […] The four protonation equilibria of the aspartic and glutamic residues partly overlap but, in agreement with the literature data, the aspartic β-carboxylic group is more acidic than glutamic γ-carboxylic one.[48] The potentiometric titrations were carried out exploring 0.9:1 and 2.2:1 metal to ligand molar ratio. […] The peptide forms two complex species, [ZnLH] and [ZnL]. The first one is the predominant at pH = 6, and the calculated stability constant value [logK(111) = logβ(111) – logK(011) = 5.71] indicates the involvement of three nitrogen atoms in the metal coordination environment. The [ZnL] species display a stability constant value, logβ = 7.15, higher than that of protonated species indicative of the involvement of a further nitrogen atom in the metal binding mode. In this complex species, Zn^2+ is bound to four nitrogen atoms with the involvement of two amino and two imidazole (2NH2,2NIm coordination mode). […]
Potentiometric measurements
Potentiometric titrations were carried out on a Titrando 905 automatic, using a combined glass-Ag/AgCl electrode (Metrohm, Switzerland). Solutions (2.0 mL) were thermostated at 298 K and in argon atmosphere. The ionic strength was 0.1 M in KNO3. A 0.1 M solution of KOH was used to titrate solutions containing either the peptides only (protonation constants) or the peptides with Zn2+ (complexation constants). The peptide concentrations range used was 1-2 mM in both series of experiments. At least three independent titrations were performed. Starting pH value was adjusted to 2.4 by adding HNO3 0.2 M. The titrations were carried out up to pH 8.5. Metal ion/ligand ratios between 0.9:1 and 2.2:1 were employed. To avoid systematic errors and verify reproducibility, the EMF values of each experiment were recorded at different time intervals. The data were analyzed by […]
using HYPERQUAD 2003 program 17. […]

[3] = species LH 12 (NH2), 0.1 M KNO3
[4] = species LH 13 (His), 0.1 M KNO3
[5] = species LH 14 (His), 0.1 M KNO3
[6] = species LH 15 (COO), 0.1 M KNO3
[7] = species LH 16 (COO), 0.1 M KNO3
[8] = species LH 17 (COO), 0.1 M KNO3
[9] = species LH 18 (COO), 0.1 M KNO3

conformation by far-UV CD [1] | logk (stepwise protonation, pK) ([2]; species LH 11 (NH2), 0.1 M KNO3) | log (protonation constant) ([2]; species LH 11 (NH2), 0.1 M KNO3, at least three titrations) | log (protonation constant) [2, 3] | logk (stepwise protonation, pK) [2, 3] | log (protonation constant) [2, 4] | logk (stepwise protonation, pK) [2, 4] | log (protonation constant) [2, 5] | logk (stepwise protonation, pK) [2, 5] | log (protonation constant) [2, 6] | logk (stepwise protonation, pK) [2, 6] | log (protonation constant) [2, 7] | logk (stepwise protonation, pK) [2, 7] | log (protonation constant) [2, 8] | logk (stepwise protonation, pK) [2, 8] | log (protonation constant) [2, 9] | logk (stepwise protonation, pK) [2, 9] | Substance | proliferative capacity (undifferentiated cells)
– | – | – | – | – | – | – | – | – | – | – | – | – | – | – | – | – | HSDPARRGELSV-NH2 [m-bdnf, linear peptide fragment encompassing the first 12 amino acids of the mature NT N-terminal] | displays proliferative capacity in undifferentiated cells
predominantly a random coil conformation | 7.59 | 7.59 | 14.75 | 7.16 | 20.71 | 5.96 | 26.03 | 5.32 | 30.69 | 4.66 | 34.90 | 4.20 | 38.44 | 3.55 | 41.75 | 3.31 | HSDPARRGELSVC-C-VSLEGRRAPDSH (disulfide) [d-bdnf] | –

Reference: article PMC9732821, “Neurotrophic Activity and Its Modulation by Zinc Ion of a Dimeric Peptide Mimicking the Brain-Derived Neurotrophic Factor N-Terminal Region” (ACS Chemical Neuroscience, 2022)
